{
  "source": "patent EP2823816A1",
  "about": "“Inhibitors of Neuropilin and use thereof for the treatment of Neuropilin-related diseases” (Tragex Pharma, priority 2013, dated 2015)",
  "key": {"MDA-MB-231": {"system": "MDA-MB-231", "assay": "WST-1 proliferation / cytotoxic test", "assay_type": "cell-based, human", "details": "for IC50: Homo sapiens", "procedure": "(§1) After observation of cells under the microscope, old media were removed and the adherent cells washed gently twice with PBS (Phosphate Buffer Saline, -Ca^2+, -Mg^2+, Lonza cat n°: 17-512F/12). All cells were detached with 3 ml of trypsin/EDTA (chelator of calcium and magnesium ions) (Lonza), incubated for 5 min at 37°C, and examined using a microscope to ensure that the cells were detached and floating. Then, 3 ml TNS (Trypsin Neutralizing Solution, Lonza, France, cat n° CC-5002) or of culture medium were added to inactivate the trypsin, and the cell suspension was transferred in a falcon tube and centrifuged for 7 min at 1400 rpm. The supernatant was removed and the cell pellet resuspended in […] of culture medium. 50 µL of this solution were transferred in 20 µL of isotonic solution and the cells were counted by count cellular (Beckman Coulter). […]\n(§2) The cell proliferation WST-1 assay is a colorimetric assay for the quantification of cell proliferation and viability, based on the enzymatic cleavage of the tetrazolium salt WST-1 added to the culture medium, to a water soluble colored formazan dye, detected by absorbance at 450 nm, by mitochondrial succinate-tetrazoliumreductase in viable cells. […]\nAfter an incubation period of 72 h, at day 4, were prepared the 19 mL medium with reagent WST-1 1mL (10 mL WST-1 in 200 mL well). […] The cells were incubated at 37°C in a humidified atmosphere of 5% CO2 for 1h30 and the absorbance at 450-655 nm was measured by Microplate Manager 5.2 (Bio-Rad)."}, "[1]": {"system": "MDA-MB-231 + control shRNA", "assay": "Proliferation assay in shRNA-transfected cells", "assay_type": "cell-based", "details": "Homo sapiens; inhibition of proliferation; clone MDA-MB-231 + control shRNA", "from_the_text": "(§3) The cell proliferation WST-1 assay is a colorimetric assay for the quantification of cell proliferation and viability, based on the enzymatic cleavage of the tetrazolium salt WST-1 added to the culture medium, to a water soluble colored formazan dye, detected by absorbance at 450 nm, by mitochondrial succinate-tetrazoliumreductase in viable cells. An augmentation in enzyme activity will then lead to an increase in the amount of formazan dye formed, which directly correlates to the number of metabolically active cells in the culture.\n(§4) After an incubation period of 72 h, at day 4, were prepared the 19 mL medium with reagent WST-1 1mL ([…]). The medium was removed from the 96 microplate and 200 µL of solution WST-1/medium were added for each well. The cells were incubated at 37°C in a humidified atmosphere of 5% CO2 for 1h30 and the absorbance at 450-655 nm was measured by Microplate Manager 5.2 (Bio-Rad).\n(§5) The effect of compound 1 of the invention on cell proliferation was tested according to the proliferation assay hereinabove described, in MDA-MB-231 cancer cells transfected with shRNA directed to NRP1 or NRP2 or with control shRNA."}, "[2]": {"system": "MDA-MB-231 + shRNA directed to NRP1", "assay": "Proliferation assay in shRNA-transfected cells", "assay_type": "cell-based", "details": "Homo sapiens; inhibition of proliferation; clone MDA-MB-231 + shRNA directed to NRP1", "from_the_text": "as §3, §4, §5"}, "[3]": {"system": "MDA-MB-231 + shRNA directed to NRP2", "assay": "Proliferation assay in shRNA-transfected cells", "assay_type": "cell-based", "details": "Homo sapiens; inhibition of proliferation; clone MDA-MB-231 + shRNA directed to NRP2", "from_the_text": "as §3, §4, §5"}, "HUVEC cells [4]": {"system": "HUVEC cells", "assay": "Adhesion test (crystal violet)", "assay_type": "cell-based", "details": "in vitro, Figure 1A", "procedure": "as §1\nAfter an incubation period of 72 h, the adherent cells were fixed with […] paraformaldehyde 3% for 15 min at room temperature. […] The microplate was stirred to obtain a homogenous solution and absorbance was quantified at 580 nm by Microplate Manager 5.2. The percentage of inhibition was calculated as follow: % inhibition = 100-[(DOsample/DOcontrol)*100]. […]"}, "HUVEC cells [5]": {"system": "HUVEC cells", "assay": "WST-1 proliferation assay", "assay_type": "cell-based", "details": "in vitro, Figure 1B", "procedure": "as §1, §2"}, "MDA-MB-231 cells [6]": {"system": "MDA-MB-231 cells", "assay": "Adhesion test (crystal violet)", "assay_type": "cell-based, human", "details": "in vitro, Figure 3A"}, "MDA-MB-231 cells [7]": {"system": "MDA-MB-231 cells", "assay": "In vivo xenograft study, tumor growth", "details": "NOD-SCID IL-2Rγ-/- mice, MDA-MB-231 xenograft, 10 or 50 mg/kg, oral gavage three times a week, Figure 5B", "procedure": "(§6) Female (NOD-SCID, IL-2Rγ^-/-) mice 5-6 weeks old were injected subcutaneously with MDA-MB-231 cells (5.10^6) at a single site on their right flanks. Tumors were allowed to grow to about 100 mm^3 before being pair-matched by tumor size into treatment groups (8 mice/group). One group was treated with vehicles (8 mice receiving cremofor 12.5%/ethanol 12.5%/ H2O), one group was treated with 10 mg/kg of the compound 1 of the invention (8 mice receiving compound 1 + cremofor 12.5%/ethanol 12.5%/ H2O), one group was treated with 50 mg/kg of the compound 1 of the invention (8 mice receiving compound 1+ cremofor 12.5%/ethanol 12.5%/ H2O). All groups received 3 times a week by oral gavages approximately 100 µL of a solution containing the compound 1 of the invention. Mice were weighed regularly to assess toxicity of the treatments and the tumors were measured with calipers (width x width x length x Pi/6) to determine tumor growth. Mice survival was assessed during the study and metastatic development was investigated in lung, spleen and liver."}, "[8]": {"assay": "In vivo xenograft study, body weight", "details": "NOD-SCID IL-2Rγ-/- mice, both tested doses (10 or 50 mg/kg), oral gavage three times a week, Figure 5A", "procedure": "as §6"}},
  "data": [
    {"smiles": "CCOc1ccccc1NC(=O)c1ccc(C)c(S(=O)(=O)Nc2ccc(C)cc2)c1", "note": "[Compound 1, N-(2-ethoxyphenyl)-4-methyl-3-(N-(p-tolyl)sulfamoyl)benzamide]", "values": [
      {"measurement": "IC50", "setting": "MDA-MB-231; Breast, MDA-MB-231, wst-1 cytotoxic test, 72 h", "value": "700 ± 80", "unit": "nM"},
      {"measurement": "IC50", "setting": "MDA-MB-231; inhibition of proliferation, clone MDA-MB-231 (Table 2)", "value": "700 ± 50", "unit": "nM"},
      {"measurement": "proliferation of MDA-MB-231 cells", "setting": "MDA-MB-231; in vitro, Figure 3B", "value": "inhibits"},
      {"measurement": "IC50", "setting": "[1]", "value": "800 ± 50", "unit": "nM"},
      {"measurement": "IC50", "setting": "[2]", "value": "9 ± 0.08", "unit": "µM"},
      {"measurement": "IC50", "setting": "[3]", "value": "10 ± 0.05", "unit": "µM"},
      {"measurement": "adhesion of HUVEC cells", "setting": "HUVEC cells [4]", "value": "inhibited"},
      {"measurement": "proliferation of HUVEC cells", "setting": "HUVEC cells [5]", "value": "inhibited"},
      {"measurement": "adhesion of MDA-MB-231 cells", "setting": "MDA-MB-231 cells [6]", "value": "inhibits"},
      {"measurement": "development of tumors (tumor size)", "setting": "MDA-MB-231 cells [7]", "value": "inhibits the development of tumors"},
      {"measurement": "body weight (toxicity)", "setting": "[8]", "value": "no significant change in body weight"}
    ]}
  ]
}
